Results taken from ChEMBL document CHEMBL3600325, “Inhibitory effect of pironetin analogue/colchicine hybrids on the expression of the VEGF, hTERT and c-Myc genes” (2015).

Experiments:
Type in all cases: functional
Design in all cases: scale not given: the % may be the effect or the level left
HT-29 [1] = experiment: Inhibition of Myc mRNA expression in human HT-29 cells assessed as Myc mRNA level at 5 ug/ml incubated for 48 hrs by RT-PCR method relative to control
HT-29 [2] = experiment: Inhibition of VEGF mRNA expression in human HT-29 cells assessed as VEGF mRNA level at 5 ug/ml incubated for 48 hrs by RT-PCR method relative to control
HT-29 [3] = experiment: Inhibition of hTERT mRNA expression in human HT-29 cells assessed as hTERT mRNA level at 5 ug/ml incubated for 48 hrs by RT-PCR method relative to control
HT-29 [4] = experiment: Inhibition of VEGF production in human HT-29 cells assessed as VEGF level at 5 ug/ml incubated for 72 hrs by ELISA method relative to control
HT-29 [5] = experiment: Inhibition of Myc mRNA expression in human HT-29 cells assessed as Myc mRNA level at 10 uM incubated for 48 hrs by RT-PCR method relative to control
HT-29 [6] = experiment: Inhibition of Myc mRNA expression in human HT-29 cells assessed as Myc mRNA level at 50 nM incubated for 48 hrs by RT-PCR method relative to control
HT-29 [7] = experiment: Inhibition of VEGF mRNA expression in human HT-29 cells assessed as VEGF mRNA level at 50 nM incubated for 48 hrs by RT-PCR method relative to control
HT-29 [8] = experiment: Inhibition of hTERT mRNA expression in human HT-29 cells assessed as hTERT mRNA level at 10 uM incubated for 48 hrs by RT-PCR method relative to control
HT-29 [9] = experiment: Inhibition of VEGF mRNA expression in human HT-29 cells assessed as VEGF mRNA level at 10 uM incubated for 48 hrs by RT-PCR method relative to control
HT-29 [10] = experiment: Inhibition of hTERT mRNA expression in human HT-29 cells assessed as hTERT mRNA level at 50 nM incubated for 48 hrs by RT-PCR method relative to control

SMILES | Activity (HT-29 [1]) | Activity (HT-29 [2]) | Activity (HT-29 [3]) | Activity (HT-29 [4]) | Activity (HT-29 [5]) | Activity (HT-29 [6]) | Activity (HT-29 [7]) | Activity (HT-29 [8]) | Activity (HT-29 [9]) | Activity (HT-29 [10])
COc1cc2c(c(OC)c1OC)-c1ccc(OC)c(=O)cc1[C@@H](NC(=O)CCCC(=O)OCCCCC[C@@H]1CC=CC(=O)O1)CC2 | 16% | 6% | 67% | 45% | – | – | – | – | – | –
COc1cc2c(c(OC)c1OC)-c1ccc(OC)c(=O)cc1[C@@H](NC(=O)CCCCCCCCCCC(=O)OCCCCC[C@@H]1CC=CC(=O)O1)CC2 | 5% | 3% | 19% | 64% | 13% | 60% | 36% | 27% | 8% | 75%
COc1cc2c(c(OC)c1OC)-c1ccc(OC)c(=O)cc1[C@@H](NC(=O)CCCC(=O)OCC[C@H](C[C@H](C)C[C@@H]1CC=CC(=O)O1)OC)CC2 | 97% | 70% | 125% | 44% | – | – | – | – | – | –
COc1cc2c(c(OC)c1OC)-c1ccc(OC)c(=O)cc1[C@@H](NC(=O)CCCCCCCCCCC(=O)OCC[C@H](C[C@H](O)C[C@@H]1CC=CC(=O)O1)OC)CC2 | 15% | 7% | 42% | 44% | 32% | 94% | 51% | 55% | 9% | 81%
CO[C@H](CCO)C[C@H](O)C[C@@H]1CC=CC(=O)O1 | 111% | 44% | 125% | 93% | 66% | >100% | 90% | >100% | 40% | >100%
COc1cc2c(c(OC)c1OC)-c1ccc(OC)c(=O)cc1[C@@H](NC(C)=O)CC2 [COLCHICINE] | 6% | 4% | 20% | 40% | 6% | 19% | 48% | 30% | 5% | 43%
C/C=C/C[C@H](C)[C@@H](OC)[C@@H](C)[C@H](O)C[C@H]1OC(=O)C=C[C@H]1CC [PIRONETIN] | 118% | 48% | 119% | 50% | – | – | – | – | – | –
